Experimental findings from US20130296434A1, “FORMULATIONS AND METHODS FOR TREATING AMYLOIDOSIS” (Kiacta Sarl, priority 2005, published 2013) are described below.

Read-outs that look alike come from different tables or passages of the source.

A short description of this series: Pharmacokinetic profile of a single oral dose of 800 mg PDS in subjects with varying degrees of renal impairment vs healthy volunteers. It counts as in vivo. Conditions: human, plasma, single oral 800 mg; for AUC(0-inf): mean, only subjects with estimable elimination rate constant; for AUC(0-t): read-out: AUC0-Tlast. On the procedure: An open-label, non-randomized, parallel group study to assess the pharmacokinetic profile of a single oral dose of 800 mg 1,3-propanedisulfonic acid disodium salt (PDS) in subjects with varying degrees of renal impairment as compared to healthy volunteers is conducted. Blood and urine samples are collected for 24 hours following dosing. Plasma and urine concentrations in 1,3-propanedisulfonic acid are determined using validated HPLC methods. […] Consequently, a decrease in dose appears to be necessary to maintain an acceptable systemic exposure in patients with impaired renal function.

Where [1] appears, read: Healthy, GFR >80 mL/min, n = 6, mean.
Where [2] appears, read: Mild renal impairment, GFR 50-80 mL/min, n = 6, mean.
[3] abbreviates: Moderate renal impairment, GFR 30-50 mL/min, n = 4, mean.
The mark [4] stands for this setting: Severe renal impairment, GFR <30 mL/min, n = 6, mean.

For orientation: AUC(0-inf) means the area under the concentration-time curve extrapolated to infinity. Lower therefore signals low exposure. Broadly, the Cmax is the maximum level reached in the sampled fluid or tissue. As a reminder, the Tmax is the time from dosing to the highest level. As to `O=S(=O)([O-])CCCS(=O)(=O)[O-].[Na+].[Na+]` [PDS, 1,3-propanedisulfonic acid, disodium salt], the AUC(0-inf) is, setting by setting: (Healthy, GFR >80 mL/min) 5370 ng·h/mL; (Mild renal impairment, GFR 50-80 mL/min) 13000 ng·h/mL; (Moderate renal impairment, GFR 30-50 mL/min) 10700 ng·h/mL; (Severe renal impairment, GFR <30 mL/min) 43100 ng·h/mL. In addition, the Cmax runs as follows: under setting [1], 1240 ng/mL; under setting [2], 3060 ng/mL; under setting [3], 2100 ng/mL; under setting [4], 2210 ng/mL. In addition, the AUC(0-t) under setting [1] is 3160 ng·h/mL, the AUC(0-t) under setting [2] was 9110 ng·h/mL, the AUC(0-t) under setting [3] was found to be 9450 ng·h/mL and the AUC(0-t) under setting [4] is 29200 ng·h/mL. The Tmax (Healthy, GFR >80 mL/min, n = 6, median) was found to be 30 min; the Tmax (Mild renal impairment, GFR 50-80 mL/min, n = 6, median) came to 30 min; the Tmax (Moderate renal impairment, GFR 30-50 mL/min, n = 4, median) is 30 min; the Tmax (Severe renal impairment, GFR <30 mL/min, n = 6, median) amounted to 150 min.
